Values quoted from earlier work as cited in patent US4027039A (priority 1975, dated 1977).

Test system: Influenza A PR8 virus
Set-up: toxicity at upper limit: dose or concentration left out as unconfirmed
Settings: cited from earlier work

## CC(C=NNC(=N)N)=NNC(=N)N [Methylgloxal-bis-guanylhydrazone]
  toxicity at upper limit: toxic
Lower limit, 0.125 mg per ml
  inhibition: Ninety
